In the supplement of paper PMC3974653:
Where a name gives a salt, the structure may show the parent alone.

The molecules below were run on MTT (mouse pheochromocytoma) (assay: IC50 of cell viability (ATP content)). Settings: (24 or 48 h).
Summary of the method: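 MTT mouse pheochromocytoma cells were seeded into white 1536-well plates at 5 µl per well from a 200,000 cells/ml suspension in DMEM with 5% FBS and 1% horse serum, then cultured overnight at 37°C, 5% CO2. A pintool added 23 nl of library compound in DMSO at 8 concentrations (final 0.5 nM to 46 µM) for 24 or 48 hrs, and CellTiter-Glo ATP luminescence was read after 15 minutes. Signals were scaled so that positive-control wells equalled 100% and DMSO wells 0%. IC50 values were derived by fitting a four-parameter logistic curve.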

SMILES | IC50 of cell viability [µM]
COc1cc(CC(C)N)c(OC)cc1Br (single isomer, unassigned; (-)) [(-)-4-Bromo-2,5-dimethoxyamphetamine] | > 46
COc1cc2nc(N(C)CCCNC(=O)[C@H]3CCCO3)nc(N)c2cc1OC [Alfuzosin hydrochloride] | > 46
O=[N+]([O-])O[C@H]1CO[C@H]2[C@@H]1OC[C@H]2O [ISOSORBIDE MONONITRATE] | > 46
COc1cc(C(=O)NCCCCCC(=O)O)cc(OC)c1OC [ACIDUM CAPOBENICUM] | > 46
c1cc2ccc3cccc4ccc(c1)c2c34 [PYRENE] | > 46
CCOc1ccc(C[C@H]2NC(=O)CCSSC[C@@H](C(=O)N3CCC[C@H]3C(=O)N[C@@H](CCCN)C(=O)NCC(N)=O)NC(=O)[C@H](CC(N)=O)NC(=O)[C@H]([C@@H](C)O)NC(=O)[C@H]([C@@H](C)CC)NC2=O)cc1 [Atosiban] | > 46
CC[C@H](C)[C@H](NC(=O)[C@H](CO)NC(=O)[C@H](CC(N)=O)NC(=O)[C@H](CC(C)C)NC(=O)[C@H](Cc1ccc(O)cc1)NC(=O)[C@H](CCCCN)NC(=O)[C@H](CCCCN)NC(=O)[C@@H](NC(=O)[C@H](C)NC(=O)[C@H](CCSC)NC(=O)[C@H](CCC(N)=O)NC(=O)[C@H](CCCCN)NC(=O)[C@H](CCCNC(=N)N)NC(=O)[C@H](CC(C)C)NC(=O)[C@H](CCCNC(=N)N)NC(=O)[C@@H](NC(=O)[C@H](Cc1ccc(O)cc1)NC(=O)[C@H](CC(N)=O)NC(=O)[C@H](CC(=O)O)NC(=O)[C@@H](NC(=O)[C@H](Cc1ccccc1)NC(=O)[C@@H](NC(=O)[C@H](C)NC(=O)[C@H](CC(=O)O)NC(=O)[C@H](CO)NC(=O)[C@@H](N)Cc1c[nH]cn1)C(C)C)[C@@H](C)O)[C@@H](C)O)C(C)C)C(=O)N[C@@H](CC(C)C)C(=O)N[C@@H](CC(N)=O)C(=O)O [AVIPTADIL] | > 46
CC(=O)OC1CN2CCC1CC2 (configuration not stated) [ACECLIDINE] | > 46
O=C(COCCOCCOCC(=O)Nc1c(I)cc(I)c(C(=O)O)c1I)Nc1c(I)cc(I)c(C(=O)O)c1I [Biliscopin] | > 46
O=C(NC1N=C(c2ccccc2F)c2cccc3c2N(CC3)C1=O)c1cc2ccccc2[nH]1 (stereo in doubt) | > 46
Nc1ccc(N)cc1 [P-PHENYLENEDIAMINE] | > 46
CN1CCN=C(c2ccccc2)c2cc(Cl)ccc21 [Medazepam] | > 46
O=C(O)[C@H]1C[C@@H](CP(=O)(O)O)CCN1 | > 46
CCCCCl [n-Butyl chloride] | > 46
[O]=[Bi][O]C(=O)[O][Bi]=[O] [Bismuth subcarbonate] | > 46
CCC1(c2ccccc2)C(=O)NC(=O)N(C(=O)c2ccccc2)C1=O (configuration not stated) [Benzobarbital] | > 46
NC1=NC(=O)N2CC12 (configuration not stated) [IMEXON] | > 46
NC(=O)c1ccc([N+](=O)[O-])cc1Cl [AKLOMIDE] | > 46

Next, values leading:

IC50 of cell viability [µM] | SMILES
> 46 | CC(=O)CC(c1ccccc1)C1C(=O)Oc2ccccc2C1=O (configuration not stated) [WARFARIN POTASSIUM]
> 46 | CC[C@@H]1OC(=O)[C@H](C)[C@H](O[C@H]2C[C@](C)(OC)[C@H](O)[C@H](C)O2)[C@H](C)[C@H](O[C@@H]2O[C@@H](C)C[C@@H](N(C)C)[C@H]2O)[C@](C)(O)C[C@H](C)/C(=N/OCOCCOC)[C@H](C)[C@H](O)[C@]1(C)O [Roxithromycin]
> 46 | C[C@H]1[C@H]\2[C@H](O)[C@H]3[C@H](N(C)C)\C(=C(\C(N)=O)C(=O)[C@]3(O)\C(=C2C(=O)C4=C1C=CC=C4O)O)O [Doxycycline hydrochloride]
> 46 | CO [Methanol]
> 46 | CC1(C)S[C@@H]2[C@H](NC(=O)[C@H](N)c3ccccc3)C(=O)N2[C@@H]1C(=O)OCOC(=O)[C@@H]1N2C(=O)C[C@@H]2S([O-])([O-])C1(C)C [Sultamicillin tosylate]
> 46 | Oc1ccnc(O)n1 [URACIL]
> 46 | C[N+](C)(CCCCCC[N+](C)(C)C1c2ccccc2-c2ccccc21)C1c2ccccc2-c2ccccc21 [Hexafluorenium dibromide]
> 46 | N=C(N)NCCCC[C@@H]1NC(=O)CCSSC[C@@H](C(N)=O)NC(=O)[C@@H]2CCCN2C(=O)[C@H](Cc2c[nH]c3ccccc23)NC(=O)[C@H](CC(=O)O)NC(=O)CNC1=O [EPTIFIBATIDE]
> 46 | NCCNC(=O)c1ccc(Cl)cn1 [LAZABEMIDE HYDROCHLORIDE]
> 46 | O=P(O)(O)CP(=O)(O)O [MEDRONIC ACID]
> 46 | NC1CCN(c2nc3c(cc2F)c(=O)c(C(=O)O)cn3-c2ccc(F)cc2F)C1 (configuration not stated) [TOSUFLOXACIN TOSILATE]
> 46 | C[C@H](CCC(=O)O)[C@@H]1CC[C@H]2[C@@H]3[C@@H](CC[C@@]21C)[C@@]1(C)CC[C@H](O)C[C@@H]1C[C@@H]3O [Chenodiol]
> 46 | O=C1NCCN1CCN1CCC(c2cn(-c3ccc(F)cc3)c3ccc(Cl)cc23)CC1 [Sertindole]
> 46 | CCCCCCCCCCCCCCCC(=O)OCC(COC(=O)CCCCCCCCCCCCCCC)OC(=O)CCCCCCCCCCCCCCC [Tripalmitin]
> 46 | CN1/C=C(/[S+](C)[O-])C(=O)C2=C1C=C(F)C=C2 (configuration not stated) [Flosequinan]
> 46 | O=c1[nH]c2ccccc2n1CCCN1CCN(C(c2ccccc2)c2ccccc2)CC1 [Oxatomide]
> 46 | CO[C@@H]1[C@@H](OC2OC(C)C(OC3CC(C)(O)C(OC(=O)CC(C)C)C(C)O3)C(N(C)C)C2O)[C@@H](CC=O)C[C@@H](C)C(=O)C=CC2O[C@H]2C[C@@H](C)OC(=O)C[C@H]1OC(C)=O (some centres not stated) [CARBOMYCIN]
> 46 | CC1CCc2c(N3CCC(O)CC3)c(F)cc3c(=O)c(C(=O)O)cn1c23 (configuration not stated) [Nadifloxacin]
> 46 | C/C(=C(/CCO)SS/C(CCO)=C(\C)N(C=O)Cc1cnc(C)nc1N)N(C=O)Cc1cnc(C)nc1N [THIAMINE DISULFIDE]
> 46 | CC(=O)SC1C\C2=C\C(=O)CCC2(C)C3CCC4(C)C(CCC45CCC(=O)O5)C13 (configuration not stated) [Spironolactone]
> 46 | CN(C)[C@H]\1[C@@H]2[C@@H](O)[C@H]3\C(=C(O)/[C@]2(O)C(=O)\C(=C1O)C(N)=O)C(=O)C4=C(C=CC=C4O)[C@@]3(C)O [Oxytetracycline HCl]
> 46 | O=C(O)CCCCC1SCC2NC(=O)NC21 (configuration not stated) [Vitamin B7]
> 46 | CC(=O)O[C@@]1(CC[C@H]2[C@@H]3CCC/4=C/C(=O)CC[C@@H]4[C@H]3CC[C@]12C)C#C [NORETHISTERONE ACETATE]
> 46 | CCOCC(O)COc1ccc(NC(=O)CC[S+](C)C)cc1 (configuration not stated) [SUPLATAST TOSILATE]
